# Data as given in US20060062859A1, “Composition and method to optimize and customize nutritional supplement formulations by measuring genetic and metabolomic contributing factors to disease diagnosis, stratification, prognosis, metabolism, and therapeutic outcomes” (priority 2004, published 2006).
# Like-named read-outs stand apart in the source and are kept apart here.
# How the values were obtained:
# [1] = nucleus accumbens microinjections; cited from earlier work
# opioid receptor = conditions: intra-VTA infusions; cited from earlier work
# [2] = cited from earlier work
# lipolysis = conditions: p <0.01; cited from earlier work
# [3] = Chromium picolinate vs placebo in obese subjects genotyped for DRD2 (scale weight, DEXA body fat); format: in vivo, human; conditions: for change in fat weight, body weight, percent change in weight, body weight change in kg: A2/A2 carriers; for any parameter of weight change: subjects possessing a DRD2 A1 allele (A1/A1 or A1/A2)
# Method: A Case Study: Chromium and Dopamine Genes. While there is still controversy regarding the effects of chromium salts (picolinate and nicotinate) on body composition and weight loss in general, recent work seems to support the positive change in body composition in humans. The inventors embarked on a study with chromium picolinate to test out the principles of nutrigenomics. In this study they genotyped obese subjects for the dopamine D2 receptors gene (DRD2). The subjects were assessed for scale weight and for percent body fat. The subjects were divided into matched placebo and chromium picolinate (CrP) groups. […] Moreover, the inventors propose for the first time that mixed effects now observed with CrP administration in terms of body composition, may be resolved by typing the patient via DRD2 genotyping prior to treatment with chromium salts.
# To reiterate, Blum and associates found similar evidence with chromium picolinate, for the role of genes in physiological response with nutritional supplements. While there still is controversy regarding the effects of chromium salts (picolinate and nicotinate) on body composition and weight loss in general, recent unpublished work seems to support the positive change in body composition in humans. In consideration of the above study, Chen and Blum and others decided to genotype 130 overweight subjects for the dopamine D2 receptor gene. The subjects were assessed for scale weight and for percent body fat using dual energy X-ray absorptionmetry (DEXA R). The subjects were divided into matched placebo and chromium picolinate groups (400 μg. per day). The sample was separated into two independent groups; those with either an A1/A1 or A1/A2 allele and those with only the A2/A2 pattern. […] Moreover, we propose for the first time that mixed effects now observed with chromium picolinate in terms of body composition, may be resolved by typing the patient via dopamine D2 receptor genotyping prior to treatment with not only chromium salts, but with other nutritional supplements as well.
# In terms of weight loss ingredients one nutrient Chromium Picolinate, one of the most widely used ingredient in the weight management field, pharmacogenomically responds differentially based on the DRD2genotype. Dr. Blum is current in revision on a publication detailing these findings. Here are some details on the abstract: • Thomas J H Chen, Kenneth Blum, * Gilbert Kaats, E. R. Braverman. Arthur Eisenberg, M. Sherman. K. Davis, D E Comings, R. Wood, D. Pullin. CHROMIUM PICOLINATE A PUTATIVE ANTI-OBESITY NUTRIENT INDUCES CHANGES IN BODY COMPOSITION AS A FUNCTION OF THE Taq1 DOPAMINE D2 RECEPTOR POLYMORPHISMS. International J. Of Eating Disorders (in revision). • Objective: There is still controversy regarding the effects of chromium salts (picolinate and nicotinate) on body composition and weight loss in humans. Thus, we decided to test the hypothesis that typing the obese patients by genotyping the DRD2 gene prior to treatment with Chromium Picolinate (CrP) would result in a differential treatment outcome. • Methods: We genotyped obese subjects for the dopamine D2 receptors gene (DRD2) utilizing standard PCR techniques. The subjects were assessed for scale weight and for percent body fat using dual energy X-ray absorptiometry (DEXAR). The subjects were divided into matched placebo and CrP groups (400 ug. per day) accordingly. The sample was separated into two independent groups. Those with either an A1/A1 or A1/A2 allele or those with only the A2/A2 allelic pattern.
# [4] = after six months; cited from earlier work
# [5] = 200 and 400 mcg, cited from earlier work
# [6] = 400 mcg, cited from earlier work
# [7] = cited from earlier work; remark: listed apart in the source
# [8] = injections; cited from earlier work
# [9] = people with RA; cited from earlier work
# [10] = HCA 440 mg t.i.d. eight weeks (Thom); design: species or system human; conditions: in vivo
# Method: The Thom study indicates a dosage level of 440 mg of HCA (as opposed to GcE) t.i.d. (1320 mg/day) for eight weeks. […] The mean “weight loss” in the HCA group was 6.4 kg, 1.68 times greater than placebo. […] The GcE was taken in conjunction with 1200 mg L-Carnitine and 600 mcg chromium (from picolinate) and compared to placebo in 186 subjects (200 began the study) for 4 weeks. All participants were supposed to engage in an exercise regimen calibrated to personal needs. Loss of body fat in the treatment group averaged 1.29 kg compared to 0.64 kg in the placebo ([…]. The Girola study investigated the effects of chitosan, combined with a low amount of GcE, making a comparative evaluation impossible. In fact, variables in the studies noted, and others not mentioned, make conclusions about the efficacy of GcE for “weight loss” extremely difficult.
# ATP-citrate lyase = biological target: T1, ATP-citrate lyase (Homo sapiens, UniProt P53396); conditions: cited from earlier work
# T1 sequence (P53396 1-1101): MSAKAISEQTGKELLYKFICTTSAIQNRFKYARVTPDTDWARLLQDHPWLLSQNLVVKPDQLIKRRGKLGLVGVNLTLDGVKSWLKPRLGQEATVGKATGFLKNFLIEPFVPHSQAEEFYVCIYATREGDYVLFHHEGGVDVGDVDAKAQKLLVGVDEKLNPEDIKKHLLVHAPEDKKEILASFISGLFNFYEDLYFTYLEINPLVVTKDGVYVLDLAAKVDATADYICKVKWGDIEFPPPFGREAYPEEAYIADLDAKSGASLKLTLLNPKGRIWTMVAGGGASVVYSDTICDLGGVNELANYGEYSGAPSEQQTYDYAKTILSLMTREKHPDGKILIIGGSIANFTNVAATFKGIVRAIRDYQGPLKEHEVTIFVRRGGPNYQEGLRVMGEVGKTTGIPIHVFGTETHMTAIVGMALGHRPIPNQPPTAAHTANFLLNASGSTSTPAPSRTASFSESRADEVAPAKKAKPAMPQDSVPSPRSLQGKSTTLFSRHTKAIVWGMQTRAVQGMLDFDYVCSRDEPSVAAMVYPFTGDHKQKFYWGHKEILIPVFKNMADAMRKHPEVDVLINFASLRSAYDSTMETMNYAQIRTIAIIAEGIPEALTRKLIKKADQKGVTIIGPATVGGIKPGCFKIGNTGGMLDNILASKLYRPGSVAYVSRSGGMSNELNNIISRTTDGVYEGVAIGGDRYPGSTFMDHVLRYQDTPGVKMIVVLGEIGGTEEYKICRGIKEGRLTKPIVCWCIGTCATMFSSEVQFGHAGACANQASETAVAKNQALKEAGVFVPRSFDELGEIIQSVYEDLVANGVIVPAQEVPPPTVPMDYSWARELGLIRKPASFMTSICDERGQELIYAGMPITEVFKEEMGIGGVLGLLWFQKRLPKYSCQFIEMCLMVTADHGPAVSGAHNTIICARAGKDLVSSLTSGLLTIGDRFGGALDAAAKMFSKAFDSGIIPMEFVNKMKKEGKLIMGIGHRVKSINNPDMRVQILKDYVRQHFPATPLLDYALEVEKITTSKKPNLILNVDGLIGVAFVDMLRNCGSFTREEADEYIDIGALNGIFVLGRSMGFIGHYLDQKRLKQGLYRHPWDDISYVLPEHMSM
# [11] = 1320 mg/day, eight weeks, 1200 kcal/day; cited from earlier work
# [12] = 2 weeks; cited from earlier work
# [13] = in vivo; cited from earlier work
# [14] = 3.0 g/day for 3 days; fasting state, rest or moderate exercise; cited from earlier work
# [15] = 2 g of HCA; fasting and fed subjects; cited from earlier work
molecule,measurement,setting,value
C[C@H](NC(=O)[C@@H](CC(=O)NO)Cc1ccccc1)C(=O)O [kelatrophan],intracranial self-stimulation,[1],reduced
O=C1CC[C@@]2(O)[C@H]3Cc4ccc(O)c5c4[C@@]2(CCN3CC2CC2)[C@H]1O5 [Naltrexone],stress-induced activation of dopamine metabolism in the NAcc and prefrontal cortex,opioid receptor,prevent
same,body weight,[2]; anorexic patients,weight gain
same,binge-eating,[2]; bulimics,some reduction
C[C@]12CCC(=O)C=C1CC[C@@H]1[C@@H]2[C@@H](O)C[C@@]2(C)[C@H]1CC[C@]2(O)C(=O)CO [cortisol],basal rate of lipolysis,lipolysis,significantly reduced
Chromium Picolinate,"change in fat weight, body weight, percent change in weight, body weight change in kg",[3],"changes in kgms were all significant in A2/A2 group,"
same,"change in fat weight, body weight, percent change in weight, body weight change in kg",[3]; listed as CrP,significant in A2/A2 group and non
same,"change in fat weight, body weight, percent change in weight, body weight change in kg",[3]; listed as chromium picolinate,all significant
same,any parameter of weight change,[3],no significance was found
same,any parameter of weight change,[3]; listed as CRP,do not respond
same,any parameter of weight change,[3]; listed as CrP,no significance was found
same,lean body mass,[4],After six months the CrP group had an increase in lean
same,changes in Body Mass composition indicies compared with placebo,[5],200 and 400 mcg of CrP brought about significant
same,changes in Body Mass composition indicies compared with placebo,[5]; listed as chromium picolinate,"body composition improvement, loss of body fat, gain in nonfat mass"
same,reduction in body fat vs placebo,[6]; p < 0.001,"(p < 0.001) and body fat (p < 0.004), had a greater"
same,weight lost vs placebo,[6]; p < 0.001,400 mcg CrP group lost significantly more weight
same,body composition,[6]; p < 0.004,"reduction in body fat (p < 0.001), significantly improve"
same,insulin response to an oral glucose load,[7]; exercise training combined with supplementation,lowered insulin response to an oral glucose load.
same,body weight,[7]; supplementation alone,"CrP supplementation resulted in significant weight gain,"
"NC(Cc1ccc(Cl)cc1)C(=O)O (centres unmarked) [Para-Chlora-Phenylalanine (PCA), Para-Chlora-Phenylalanine]",induction of stress,[8],attenuated
"CCCCC/C=C\C/C=C\C/C=C\CCCCC(=O)O [GLA, GAMMA-LINOLENIC ACID]",RA symptoms,[9],significant improvements
"O=C(O)CC(O)(C(=O)O)C(O)C(=O)O (stereo not drawn) [HCA, (−)—Hydroxycitric acid]",weight loss relative to placebo,[10],1.68 times greater than placebo
same,inhibition of ATP-citrate lyase,ATP-citrate lyase,competitively inhibit
same,inhibition of ATP-citrate lyase,ATP-citrate lyase; listed as FCA,competitive inhibitor
same,mean weight loss,[11],6.4 kg
same,satiety and energy intake compared to placebo,[12],did not increase satiety or effect energy intake
same,satiety,[13],no observable effects
same,short-term rate of fat oxidation,[14],did not alter
same,time to peak plasma levels,[15],approximately 2 hours
